Reference: ChEMBL document CHEMBL4371101, “Antiproliferative Cardenolides from the Aerial Parts of Pergularia tomentosa” (J Nat Prod, 2019)
The source made the active and inactive calls. The calls are words filed in the database; no cut-off is given here.

Tests used:
Assay type in all cases: functional, cell-based
MCF7 = assay: Antiproliferative activity against human MCF7 cells after 72 hrs by MTT assay; conditions: MCF7, 72 h
PC-3 [1] = assay: Antiproliferative activity against human PC3 cells after 72 hrs by MTT assay; conditions: PC-3, 72 h
HeLa = assay: Antiproliferative activity against human HeLa cells after 72 hrs by MTT assay
Calu-1 = assay: Antiproliferative activity against human Calu1 cells after 72 hrs by MTT assay; conditions: Calu-1, 72 h
U-251 = assay: Antiproliferative activity against human U251MG cells after 72 hrs by MTT assay; conditions: U-251, 72 h
PC-3 [2] = assay: Antiproliferative activity against human PC3 cells assessed as reduction in BrdU incorporation at 1 uM after 24 hrs by Hoechst staining based microscopic assay

| Structure (SMILES) | IC50 (MCF7) | IC50 (PC-3 [1]) | IC50 (HeLa) | IC50 (Calu-1) | IC50 (U-251) | Activity (PC-3 [2]) |
| --- | --- | --- | --- | --- | --- | --- |
| C[C@]12CC[C@H]3[C@@H](CC[C@H]4C[C@H]5O[C@@H]6O[C@H](CO)C[C@H](O)[C@]6(O)O[C@@H]5C[C@@]43C=O)[C@@]1(O)CC[C@@H]2C1=CC(=O)OC1 | 1800 nM | 3200 nM | 300 nM | 1400 nM | 5000 nM |  |
| C[C@@H]1C[C@H](O)[C@]2(O)O[C@@H]3C[C@@]4(C=O)[C@@H](CC[C@@H]5[C@@H]4C[C@@H](O)[C@]4(C)[C@@H](C6=CC(=O)OC6)CC[C@]54O)C[C@H]3O[C@@H]2O1 | 200 nM | 2100 nM | 600 nM | 600 nM | 1000 nM |  |
| CC(=O)O[C@@H]1C[C@]2(O)[C@@H]3CC[C@H]4C[C@H]5O[C@@H]6O[C@H](C)C[C@H](O)[C@]6(O)O[C@@H]5C[C@]4(C=O)[C@H]3C[C@@H](O)[C@]2(C)[C@H]1C1=CC(=O)OC1 | 400 nM | 4200 nM | 500 nM | 700 nM | 6500 nM |  |
| C[C@@H]1C[C@@H](O)[C@]2(O)O[C@@H]3C[C@@]4(C=O)[C@@H](CC[C@@H]5[C@@H]4CC[C@]4(C)[C@@H](C6=CC(=O)OC6)CC[C@]54O)C[C@H]3O[C@@H]2O1 [CALACTIN] | 200 nM | 3700 nM | 200 nM | 500 nM | 900 nM |  |
| C[C@@H]1C[C@H](O)[C@]2(O)O[C@@H]3C[C@@]4(C=O)[C@@H](CC[C@@H]5[C@@H]4C[C@@H](O)[C@]4(C)[C@@H](C6=CC(=O)OC6)[C@H](O)C[C@]54O)C[C@H]3O[C@@H]2O1 | 7000 nM | 600 nM | 2300 nM | 4300 nM | 1500 nM | Active |
| C[C@]12CC[C@H](O)C[C@@H]1CC[C@@H]1[C@@H]2CC[C@]2(C)[C@@H](C3=CC(=O)OC3)CC[C@]12O | 6000 nM | 300 nM | 3000 nM | 8000 nM | 6000 nM |  |
| C[C@]12[C@H](O)C[C@H]3[C@@H](CC[C@H]4C[C@H]5O[C@@H]6O[C@H](CO)C[C@@H](O)[C@]6(O)O[C@@H]5C[C@@]43CO)[C@@]1(O)CC[C@@H]2C1=CC(=O)OC1 [GHALAKINOSIDE] | 600 nM | 4200 nM | 900 nM | 700 nM | 5200 nM |  |
| C[C@]12[C@H](O)C[C@H]3[C@@H](CC[C@H]4C[C@@H](O)CC[C@@]43CO)[C@@]1(O)CC[C@@H]2C1=CC(=O)OC1 | 2500 nM | 8400 nM | 900 nM | 1300 nM | 5000 nM |  |
| C[C@]12[C@H](O)C[C@H]3[C@@H](CC[C@H]4C[C@H]5O[C@@H]6O[C@H](CO)C[C@@H](O)[C@]6(O)O[C@@H]5C[C@@]43C=O)[C@@]1(O)CC[C@@H]2C1=CC(=O)OC1 | 2000 nM | 8900 nM | 300 nM | 3700 nM | 5500 nM |  |
| C[C@@H]1C[C@@H](O)[C@]2(O)O[C@@H]3C[C@@]4(C=O)[C@@H](CC[C@@H]5[C@@H]4C[C@@H](O)[C@]4(C)[C@@H](C6=CC(=O)OC6)CC[C@]54O)C[C@H]3O[C@@H]2O1 | 6000 nM | 300 nM | 2500 nM | 7000 nM | 5300 nM | Active |
| CC(=O)O[C@@]12CO[C@@H]1C[C@H](O)[C@@]1(C)C(=O)[C@H](O)C3=C(C)[C@@H](OC(=O)[C@H](O)[C@@H](NC(=O)OC(C)(C)C)c4ccccc4)C[C@@](O)([C@@H](OC(=O)c4ccccc4)[C@H]21)C3(C)C [DOCETAXEL ANHYDROUS] | 0.5 nM | 0.6 nM | 0.3 nM | 0.4 nM | 0.7 nM |  |
| C[C@]12CC[C@H](O[C@@H]3O[C@H](CO)[C@@H](O)[C@H](O)[C@H]3O)C[C@@H]1CC[C@@H]1[C@@H]2CC[C@]2(C)[C@@H](C3=CC(=O)OC3)CC[C@]12O [DESGLUCOUZARIN] | 6000 nM | 300 nM | 600 nM | 6500 nM | 8000 nM |  |
| C[C@]12CC[C@H]3[C@@H](CC[C@H]4C[C@H]5O[C@@H]6O[C@H](CO)C[C@@H](O)[C@]6(O)O[C@@H]5C[C@@]43CO)[C@@]1(O)CC[C@@H]2C1=CC(=O)OC1 | 200 nM | 3000 nM | 300 nM | 600 nM | 1200 nM |  |
| C[C@@H]1C[C@@H](O[C@@H]2O[C@H](CO)[C@@H](O)[C@H](O)[C@H]2O)[C@]2(O)O[C@@H]3C[C@@]4(C=O)[C@@H](CC[C@@H]5[C@@H]4CC[C@]4(C)[C@@H](C6=CC(=O)OC6)CC[C@]54O)C[C@H]3O[C@@H]2O1 | 200 nM | 1000 nM | 600 nM | 300 nM | 4400 nM |  |
| C[C@@H]1C[C@@H](O)[C@]2(O)O[C@@H]3C[C@@]4(CO)[C@@H](CC[C@@H]5[C@@H]4C[C@@H](O)[C@]4(C)[C@@H](C6=CC(=O)OC6)CC[C@]54O)C[C@H]3O[C@@H]2O1 | 5000 nM | 600 nM | 7000 nM | 6000 nM | 8000 nM |  |
| C[C@]12CC[C@H]3[C@@H](CC[C@H]4C[C@@H](O)CC[C@@]43CO)[C@@]1(O)CC[C@@H]2C1=CC(=O)OC1 [COROGLAUCIGENIN] | 7000 nM | 400 nM | 4200 nM | 5800 nM | 5000 nM |  |
| C[C@]12[C@H](O)C[C@H]3[C@@H](CC[C@H]4C[C@H]5O[C@@H]6O[C@H](CO)C[C@H](O)[C@]6(O)O[C@@H]5C[C@@]43C=O)[C@@]1(O)CC[C@@H]2C1=CC(=O)OC1 | 2800 nM | 900 nM | 2000 nM | 2000 nM | 6000 nM | Active |
| COc1cc(/C=C/C(=O)OC[C@H]2O[C@@H](O[C@H]3CC[C@@]4(C)[C@@H](CC[C@@H]5[C@@H]4CC[C@]4(C)[C@@H](C6=CC(=O)OC6)CC[C@]54O)C3)[C@H](O)[C@@H](O)[C@@H]2O)ccc1O | 200 nM | 300 nM | 4500 nM | 6000 nM | 5800 nM |  |
| C[C@]12CC[C@H]3[C@@H](CC[C@H]4C[C@@H](O[C@@H]5O[C@H](CO)[C@@H](O)[C@H](O)[C@H]5O)CC[C@@]43CO)[C@@]1(O)CC[C@@H]2C1=CC(=O)OC1 | 8000 nM | 1000 nM | 300 nM | 6000 nM | 6000 nM |  |
